In US7253207B2, “Quinones as disease therapies” (Cellgate, Inc., priority 1999, dated 2007):
Like-named read-outs stand apart in the source and are kept apart here. *1 amine or outer side, *2 acyl side, *3 side chain or, on linkers, in order; H or OH if unused. Where a SMILES comes first, the peptide text is derived from it. [ ]: non-standard residue; d: D form. The star is where a group is joined. X1 = CC1(C)OC2=C(CC1O*)C(=O)C(=O)c1ccccc12; Morpholide = C1CN(*)CCO1; CO = O=C([*:1])[*:2]; βAla = NCCC(=O)O

Legend:
PC-3 = test: MTT assay, PC-3 prostate tumor cells; format: cell-based, human
Method: (§1) Cell Culture: The human lung adenocarcinoma cell line, A549, and human prostatic cancer cell line, DUPRO, were a gift from Dr. M. Eileen Dolan, University of Chicago, Department of Medicine. A549 was grown in Ham's F-12K medium (Fisher Scientific, Itasca, Ill.) supplemented with 10% fetal bovine serum and 2 mM L-glutamine. DUPRO was grown in RPMI-1640 supplemented with 10% fetal bovine serum. The human colon carcinoma cell line, HT29, and the human breast carcinoma cell line, MCF7, were obtained from the American Type Culture Collection, Rockville, Md. HT29 cells were grown in McCoy's 5A medium (Gibco, BRL, Gaithersburg, Md.) supplemented with 10% fetal bovine serum. MCF7 cells were grown in Richter's Improved Modified Eagle's medium supplemented with 10% fetal bovine serum and 2.2 g/L sodium bicarbonate. The human prostate adenocarcinoma cell lines, LNCAP, PC-3 and DU145, were gifts from Dr. George Wilding, University of Wisconsin Comprehensive Cancer Center and the Department of Medicine, and were grown in Dulbecco's Modified Eagle's medium supplemented with a 5% fetal bovine serum. The malignant glioma cell line, U251MG NCI was obtained from the brain tumor tissue bank at the University of California, San Francisco Department of Neurosurgery, and was grown in Dulbecco's Modified Eagle's medium supplemented with 10% fetal bovine serum. DUPRO, A549 and MCF7 cells were grown in 100 units/mL penicillin and 100 μg/mL streptomycin. HT29 and U251MG NCI cells were grown in 50 g/μL gentamycin. LNCAP, PC-3 and DU145 cells were maintained in 1% antibiotic antimycotic solution (Sigma, St. Louis, Mo.). All cell cultures were maintained at 37° C. in 5% CO2/95% humidified air.
(§2) MTT assay. Exponentially growing monolayer cells were plated in 96 well plates at a density of 500 cells/well and allowed to grow for 24 h. Serially diluted drug solutions were added such that the final drug concentrations in the treatment media were between 0 and 35 μM. Cells were incubated with drug at either 4 hr or 72 hr. After 4 hr and 72 hr treatment, drugs were removed, fresh media (without) drug (100 uL) was added and cells were incubated for 6 days. After six days, 25 μL of a Dulbecco's phosphate-buffered saline solution containing 5 mg/mL of MTT (Thiazolyl blue) (Sigma) was added to each well and incubated for 4 h at 37° C. Then 100 μL of lysis buffer (20% sodium dodecyl sulfate, 50% N,N-dimethylformamide and 0.8% acetic acid, pH 4.7) was added to each well and incubated for an additional 22 h. A microplate reader (E max, Molecular Devices, Sunnyvale, Calif.) set at 570 nm was used to determine the optical density. Results were plotted as a ratio of the optical density in drug treated wells to the optical density in wells treated with vehicle alone. Plotting and estimation of ID50 values were accomplished with manufacturer supplied software.

DUPRO = test: MTT assay, DUPRO prostate tumor cells; format: cell-based, human; conditions: Table 1, treatment time not stated
Method: as §1
MTT assay. Exponentially growing monolayer cells were plated in 96 well plates at a density of 500 cells/well and allowed to grow for 24 h. Serially diluted drug solutions were added such that the final drug concentrations in the treatment media were between 0 and 35 μM. […] A microplate reader (E max, Molecular Devices, Sunnyvale, Calif.) set at 570 nm was used to determine the optical density. […]

DU145 = test: MTT assay, DU145 prostate tumor cells; format: cell-based, human; conditions: Table 1; for ID50 (μM) of different prostate cells DU145: MTT assay, treatment time not stated
Method: as §1, §2

A549 = test: MTT assay, A549 lung tumor cells; format: cell-based; conditions: Homo sapiens, read-out: ID50 (μM) of different Tumor cells Lung A549
Method: as §1, §2

HT-29 = test: MTT assay, HT-29 colon tumor cells; format: cell-based; conditions: Homo sapiens, Table 2, treatment time not stated, read-out: ID50 (μM) of different Tumor cells Colon HT-29
Method: as §1, §2

U251-MG = test: MTT assay, U251-MG brain tumor cells; format: cell-based, human
Method: as §1, with “The malignant glioma cell line, U251MG NCI was obtained from the brain tumor tissue bank at the University of California, San Francisco Department of Neurosurgery, and was grown in Dulbecco's Modified Eagle's medium supplemented with 10% fetal bovine serum. DUPRO, A549 and MCF7 cells were grown in 100 units/mL penicillin and 100 μg/mL streptomycin. HT29 and U251MG NCI cells were grown in 50 g/μL gentamycin. LNCAP, PC-3 and DU145 cells were maintained in 1% antibiotic antimycotic solution (Sigma, St. Louis, Mo.). All cell cultures were maintained at 37° C. in 5% CO2/95% humidified air.” left out
MTT assay. […] A microplate reader (E max, Molecular Devices, Sunnyvale, Calif.) set at 570 nm was used to determine the optical density. […]

MCF7 = test: MTT assay, MCF7 breast tumor cells; format: cell-based, human; conditions: Table 2, treatment time not stated
Method: as §1, §2

[1] = Homo sapiens, PC-3, Table 1, MTT assay, treatment time not stated, read-out: ID50 (μM) of different prostate cells PC-3
[2] = Table 2, treatment time not stated

Row | SMILES | IC50 (PC-3; [1]) [µM] | IC50 (A549; [2]) [µM] | IC50 (HT-29) [µM] | ID50 (μM) of different Tumor cells Breast MCF7 (MCF7) [µM] | also measured
1 | O=C1C=C(OCCCCCCO)c2ccccc2C1=O [SL-11051] | 17.1 | 17.2 | 20 |  | ID50 (μM) of different prostate cells DUPRO (DUPRO): 19.3 µM; ID50 (μM) of different prostate cells DU145 (DU145): 11.16 µM
2 | COC(=O)c1cc(NC(=O)CCCCOC2=CC(=O)C(=O)c3ccccc32)cn1C [SL-11052] |  | 26.9 |  |  | 
3 | O=C(OCCCCCCOC1=CC(=O)C(=O)c2ccccc21)OCCCCCCOC1=CC(=O)C(=O)c2ccccc21 [SL-11053] |  | 7.39 | 2.8 |  | 
4 | CC(C)(C)C(=O)OC1=CC(=O)C(=O)c2ccccc21 [SL-11054] |  | > 31.2 | > 31.2 |  | 
5 | CC1(C)CCC2=C(O1)c1ccccc1C(=O)C2=O [SL-11058] |  |  |  |  | ID50 (μM) of different Tumor cells Brain U251-MG (U251-MG; Table 4, non-quinone compounds): >31.25 µM
6 | O=C1C=C(OCCCCCNc2c3ccccc3nc3ccccc23)c2ccccc2C1=O [SL-11059, Acridine-quinone] | 4.3 | 15 | 10.1 |  | 
7 | Cl.O=C1C=C(OCCCCCNC2CCCCC2)c2ccccc2C1=O [SL-11060] |  | > 31.2 | > 31.2 | 17.23 | ID50 (μM) of different Tumor cells Brain U251-MG (U251-MG; [2]): >31.25 µM
8 | N#Cc1ccc(OCCCCCCOC2=CC(=O)C(=O)c3ccccc32)cc1 [SL-11062] | 1.71 | 18.6 |  |  | 
9 | CN1CCN(c2ccc3nc(-c4ccc5nc(-c6ccc(O)cc6)[nH]c5c4)[nH]c3c2)CC1 [SL-11063] |  |  |  |  | IC50 (PC-3; Homo sapiens, PC-3, Table 3, non-quinone structure, MTT assay, read-out: ID50 (μM) of different prostate cells PC-3): > 31.2 µM; IC50 (A549; Table 4, non-quinone compounds): > 31.2 µM
10 | O=C1C=C(OCCCCCCCc2ccc(Nc3c4ccccc4nc4ccccc34)cc2)c2ccccc2C1=O [SL-11064, Quinone-anilinoacridine] | 0.7 | 9.3 |  |  | ID50 (μM) of different prostate cells DUPRO (DUPRO): 2.2 µM; ID50 (μM) of different prostate cells DU145 (DU145): 0.13 µM
11 | O=C1C=C(OCCCCCCOC2=CC(=O)c3ccccc3C2=O)c2ccccc2C1=O [SL-11065] | 1.4 | 2.13 |  |  | 
12 | O=C1C=C(OCCCCCCOc2ccc(OC3OC(CO)C(O)C(O)C3O)cc2)c2ccccc2C1=O (centres unmarked) [SL-11066] | > 31.2 | > 31.2 |  |  | 
13 | O=C1C=C(OCCCCCCOc2ccccc2)c2ccccc2C1=O [SL-11068] | 1.5 | 24 |  |  | 
14 | CN(C)c1cccc(OC(=O)CCCCOC2=CC(=O)C(=O)c3ccccc32)c1 [SL-11074] | 4.6 |  |  |  | 
15 | NCCCCCC(=O)OCCCCCCOC1=CC(=O)C(=O)c2ccccc21 [SL-11075] | 2 |  |  |  | 
16 | CCCCN(CC1=CC(=O)C(=O)c2ccccc21)C(C)=O [SL-11087] | 2.4 | 19.8 | 6.05 | 4.0 | 
17 | CCCCN(CC1=CC(=O)C(=O)c2ccccc21)C(=O)C(F)(F)F [SL-11088] | > 31.2 | > 31.2 | > 31.2 | >31.25 | 
18 | CCCCN/C=C1\C=C(O)C(=O)c2ccccc21 [SL-11089] | 11 |  |  | >31.25 | 
19 | CCCCN(CC1=C(Br)C(=O)C(=O)c2ccccc21)C(C)=O [SL-11095] | 4.2 | > 31.2 | 22.1 | 20.6 | 
20 | CCCCN(CC1=CC(=O)C(=O)c2ccccc21)C(=O)CCC(=O)N1CCOCC1 [SL-11096] | 3.6 | 17.4 | 3.4 | 3.8 | 
21 | O=C1C=C(CCCCCCCCc2ccc(Nc3c4ccccc4nc4ccccc34)cc2)c2ccccc2C1=O [SL-11125, Quinone-acridine] | 5.9 | 28 | 5.7 | 5.1 | ID50 (μM) of different prostate cells DUPRO (DUPRO): 7.9 µM; ID50 (μM) of different prostate cells DU145 (DU145): 0.13 µM
22 | CC(C)CC(NC(=O)C(CCCCN)NC(=O)C(CO)NC(=O)N1CCOCC1)C(=O)NC(CCC(N)=O)C(=O)NCCC(=O)OC1CC2=C(OC1(C)C)c1ccccc1C(=O)C2=O (stereo not drawn) [SL-11147, Morpholino-Ser-Lys-Leu-Gln-β-Ala-β-Lapachone] ({Morpholide-CO}-SKLQ[βAla]-X1; configuration not given here) |  |  |  |  | IC50 (PC-3; Table 1, 4 hr, read-out: ID50 (μM) PC-3 (4 hr)): 6.3 µM; IC50 (PC-3; Table 1, 72 hr, read-out: ID50 (μM) PC-3 (72 hr)): 1.24 µM; IC50 (DU145; 4 hr, read-out: ID50 (μM) DU145 (4 hr)): 28.1 µM; IC50 (DU145; 72 hr, read-out: ID50 (μM) DU145 (72 hr)): 2.01 µM
